Legend:
[1] = tested on: sodium-dependent phosphate uptake into isolated rabbit intestinal rings; assay: Ex vivo 33P uptake into isolated rabbit intestinal rings; format: cell-based; design: concentration or dose not given beside the values; conditions: Table 14, 15-minute incubation
Procedure: For the ex vivo assay, ^33P uptake into isolated rabbit intestinal rings was measured using a modification of the method described by Crane and Mandelstam [Robert K. Crane and Paul Mandelstam “The active transport of sugars by various preparations of hamster intestine” Biochim. Biophys. Acta 45: 460-476, 1960; the contents of which are incorporated herein by reference]. Male New Zealand rabbits 2-3 kg in weight were aeuthinized by an i.v. injection of Fatal Pluse®. A midline laparotomy was performed and the duodenum from the pyloric junction to the ligament of Trietz isolated and excised. Segments of bowel were everted, cut into 2-4 mm ring-like pieces and placed into a modified Hepes-Buffered Ringer's solution in which Na^+ had been iso-osmotically replaced with N-methyl-D-glucamine. To measure phosphate uptake, six rings were incubated in a 50 ml conical tube containing a 10 ml volume of Ringer's solution, with or without Na^+, bubbled with 100% O2 and maintained at 37° C. 0.5 uCi/ml ^33P was then incubated with the rings for a 15-minute period, the tissue harvested, rinsed, blotted dry and weighed. Tissues were then solublized by digesting them in a 5 ml volume of Solvable® tissue solubilizer overnight at 50° C. and ^33P levels determined by scintillation counting. Sodium-dependent uptake of ^33P was calculated by determining the difference in uptake between rings incubated in the presence and absence of Na^+ in the Hepes-Buffered Ringer's solution. Results are reported as the percentage inhibition of phosphate and glucose uptake, respectively.

[2] = tested on: glucose uptake into isolated rabbit intestinal rings; assay: Ex vivo glucose uptake into isolated rabbit intestinal rings; format: cell-based; design: concentration or dose not given beside the values; conditions: Table 14
Procedure: For the ex vivo assay, ^33P uptake into isolated rabbit intestinal rings was measured using a modification of the method described by Crane and Mandelstam [Robert K. Crane and Paul Mandelstam “The active transport of sugars by various preparations of hamster intestine” Biochim. Biophys. Acta 45: 460-476, 1960; the contents of which are incorporated herein by reference]. Male New Zealand rabbits 2-3 kg in weight were aeuthinized by an i.v. injection of Fatal Pluse®. A midline laparotomy was performed and the duodenum from the pyloric junction to the ligament of Trietz isolated and excised. Segments of bowel were everted, cut into 2-4 mm ring-like pieces and placed into a modified Hepes-Buffered Ringer's solution in which Na^+ had been iso-osmotically replaced with N-methyl-D-glucamine. […] […] Tissues were then solublized by digesting them in a 5 ml volume of Solvable® tissue solubilizer overnight at 50° C. and ^33P levels determined by scintillation counting. Sodium-dependent uptake of ^33P was calculated by determining the difference in uptake between rings incubated in the presence and absence of Na^+ in the Hepes-Buffered Ringer's solution. Results are reported as the percentage inhibition of phosphate and glucose uptake, respectively.

[3] = tested on: phosphate uptake by rabbit intestinal Brush Border Membrane Vesicles (BBMV); assay: 33PO4 uptake in rabbit intestinal BBMV (HTS), phosphate transporter inhibition in vitro; format: biochemical; conditions: Table 14, in vitro, read-out: Phosphate Transport IC50
Outline: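 BBMV from duodenal mucosa of male New Zealand White rabbits, diluted to about 0.5-2.0 mg/mL protein. Uptake buffers carried 33PO4 at 200,000 CPM/19 μL. Controls: Na uptake buffer (max), plus 100 μM KH2PO4 pH 7.4 (mid), K uptake buffer (min).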

| SMILES | IC50 [3] [µM] | % Phosphate Transport Inhibition [1] [%] | % Glucose Transport Inhibition [2] [%] |
| --- | --- | --- | --- |
| COc1ccccc1CNC(=O)c1cc(Br)ccc1NS(=O)(=O)c1ccc(OC(F)(F)F)cc1 [Example 70, 5-Bromo-N-(2-methoxy-benzyl)-2-(4-trifluoromethoxy-benzenesulfonylamino)-benzamide] | 6.3 | 48 | 8 |
| O=C(NCc1ccc(F)cc1)c1cc(Br)ccc1NS(=O)(=O)c1ccc(OC(F)(F)F)cc1 [Example 71, 5-Bromo-N-(4-fluoro-benzyl)-2-(4-trifluoromethoxy-benzenesulfonylamino)-benzamide] | 13 | 53 | 26 |
| O=C(NCc1ccc(OC(F)(F)F)cc1O)c1cc(Br)ccc1NS(=O)(=O)c1ccc(OC(F)(F)F)cc1 [Example 75, 5-Bromo-N-(2-hydroxy-4-trifluoromethoxy-benzyl)-2-(4-trifluoromethoxy-benzenesulfonylamino)-benzamide] | 5.2 | 56 | 0 |
| COc1ccc(F)cc1CNC(=O)c1cc(Br)ccc1NS(=O)(=O)c1ccc(OC(F)(F)F)cc1 [Example 78, 5-Bromo-N-(5-fluoro-2-methoxy-benzyl)-2-(4-trifluoromethoxy-benzenesulfonylamino)-benzamide] | 7.8 | 45 | 4 |
| O=C(Nc1cc(C(F)(F)F)cc(C(F)(F)F)c1)NC1CCCCC1 [Example 83, 1-Cyclohexyl-3-(3,5-Bistrifluoromethyl-phenyl)-urea] | 7.7 | 76 | 0 |
| Cn1nc(C(C)(C)C)cc1C(=O)Nc1ccc(C(F)(F)F)cc1 [Example 84, 5-tert-Butyl-2-methyl-2H-pyrazole-3-carboxylic acid (4-trifluoromethyl-phenyl)-amide] | 11 | 41 | 21 |
| O=C(Nc1cccc(C(F)(F)F)c1)Nc1cc(Cl)ccc1Cl [Example 85, 1-(2,5-Dichloro-phenyl)-3-(3-trifluoromethyl-phenyl)-urea] | 10 | 58 | 0 |
| O=C(Nc1cccc(C(F)(F)F)c1)Nc1ccc(F)c([N+](=O)[O-])c1 [Example 86, 1-(4-Fluoro-3-nitro-phenyl)-3-(3-trifluoromethyl-phenyl)-urea] | 2.8 | 30 | 4 |

Further lines, with some results ahead:

| IC50 [3] [µM] | SMILES | % Phosphate Transport Inhibition [1] [%] | % Glucose Transport Inhibition [2] [%] |
| --- | --- | --- | --- |
| 11 | O=C(Nc1cccc(C(F)(F)F)c1)Nc1cccc(C(F)(F)F)c1 [Example 82, 1,3Bis(3-Trifluoromethylphenyl)urea] | 25 | 26 |
| 35 | Cl.N=C(Nc1ccc(Br)c(C(F)(F)F)c1)Nc1ccc(Br)c(C(F)(F)F)c1 [Example 87, N,N′-Bis-(4-bromo-3-trifluoromethyl-phenyl)-guanidine Hydrochloride] | 71 | 3 |
| 26 | Cl.N=C(Nc1cc(C(F)(F)F)cc(C(F)(F)F)c1)Nc1cc(C(F)(F)F)cc(C(F)(F)F)c1 [Example 88, N,N′-Bis-(3,5-bis-trifluoromethyl-phenyl)-guanidine Hydrochloride] | 60 | 0 |
| 16 | Cl.N=C(Nc1ccc(Cl)c(C(F)(F)F)c1)Nc1ccc(Cl)c(C(F)(F)F)c1 [Example 89, N,N′-Bis-(4-chloro-3-trifluoromethyl-phenyl)-guanidine Hydrochloride] | 44 | 0 |
| 17 | Cl.N=C(Nc1ccc(C(F)(F)F)c(C(F)(F)F)c1)Nc1ccc(C(F)(F)F)c(C(F)(F)F)c1 [Example 90, N,N′-Bis-(3,4-bis-trifluoromethyl-phenyl)-guanidine Hydrochloride] | 93 | 0 |
